These results are taken from patent US11452737B2, “Compositions and methods for treating vascular malformation and related conditions” (priority 2015, dated 2022).

Test [1] concerns untransformed HMECs. Nature of the test: Puromycin dose response curve in untransformed HMECs. Type of test: cell-based, human. The following applies: 1 ug/ml puromycin, after 48 hours.
Test [2] has as its system HEK293T cells with GNAQ constructs. In words: Western blot of protein levels after puromycin treatment. The class given is cell-based, human. How it is done: Treated cells were harvested with ice-cold radioimmunoprecipitation assay (RIPA) buffer (150 mM NaCl, 1.0% IGEPAL® CA-630, 0.5% sodium deoxycholate, 0.1% SDS, and 50 mM Tris, pH 8.0) (Sigma-Aldrich) plus phosphatase inhibitor cocktail (Cell signaling technology, #5870) and analyzed by western blot as follows: Quantitative protein samples were denatured in 4×LDS Sample buffer (Invitrogen) at 100° C. for 6 minutes. Samples were then subjected to SDS-PAGE by using Bio-Rad 4-15% gradient gels and transferred to PVDF membrane. The membranes were blocked with Li-cor ODYSSEY® Blocking buffer for 30 minutes at room temperature. Then the membranes were incubated with primary antibody (GaQ 1:125, Santa Cruz Biotechnology, sc-393; p-ERK 1:1000, Cell Signaling Technology, 4370; ERK 1:1000, Cell signaling Technology, 4696; HSP90 1:1000, Cell Signaling Technology, 4877) in a 1:1 solution of Li-cor ODYSSEY® blocking buffer and Tris-Buffered Saline and 0.1% Tween 20 (TBST) overnight at 4° C. The membranes were then washed three times for 10 min each in Tris-Buffered Saline and 0.1% Tween 20 (TBST) then probed with goat anti-mouse (IR-Dye 680RD) or goat anti Rabbit (IR-Dye-800CW) labeled secondary antibody in 1:1 Li-cor ODYSSEY® blocking buffer to TBST for 1 hour at room temperature. […] Bands were quantified using Image J software program.
Background: In western blotting, separated proteins are transferred to a membrane and probed.

Test [3] concerns HEK293T cells transiently transfected with pcDNA3.1-E, pcDNA3.1-GNAQ, pcDNA3.1-R183Q, pcDNA3.1-Q209L. Nature of the test: Puromycin dose response curve, CellTiter 96 cell proliferation assay, 96-well plates. The class given is cell-based. Conditions: Homo sapiens, HEK-293T, 72 h, 3 days, read-out: half maximal inhibitory concentration (IC50). How it is done:
FIG. 5 is a plot showing a dose response curve for puromycin. HEK 293T cells (5×10^5 cells/well in six-well plate) were transiently transfected with pcDNA3.1-E, pcDNA3.1-GNAQ, pcDNA3.1-R183Q, pcDNA3.1-Q209L. Twenty-four (24) hours later, the cells were digested, counted and aliquoted into 96-well plates. Twenty-four (24) hours later, the cells were incubated with a series of puromycin concentrations. Three days later, the relative cell numbers were detected using a cell proliferation assay.
A dose response curve (cell number in response to puromycin concentration) for HEK293T cells transiently transfected pcDNA3.1-E, pcDNA3.1-GNAQ, pcDNA3.1-R183Q and pcDNA3.1-Q209L and treated with puromycin is shown in FIG. 5. Cells expressing either the pcDNA3.1-R183Q or pcDNA3.1-Q209L plasmids were more sensitive to puromycin compared with cells transfected with the pcDNA3.1-E or pcDNA3.1-GNAQ plasmids.
HEK293T cells (5×10^5 cells/well) in 6 well-plates were transiently transfected with 1 μg (pcDNA3.1-E, pcDNA3.1-GNAQ, pcDAN3.1-R183Q and pcDNA3.1-Q209L) per well using FUGENE 6®. Twenty-four (24) hours later, the cells were digested, counted and aliquoted into 96-well plates (1×10^4 cells/well). After another 24 hours, the transfected cells were incubated with a 100-fold concentration series of puromycin. Three days later, the relative cell numbers were detected using CELLTITER 96® Aqueous One Solution Cell Proliferation Assay Reagents (Promega #G3582) as follows: After being thawed at room temperature, 10 μl of CELLTITER 96® Aqueous One Solution Reagent was pipet into each well of the 96-well assay plate containing the samples in 100 μl of culture medium. Then, the plates were incubated at 37° C. for 2 hours in a humidified, 5% CO2 atmosphere. The absorbance at 490 nm of each sample was read by using SpectraMAX M5. Readings were normalized to that in pcDNA3.1-GNAQ cells receiving vehicle. Results were analyzed in GraphPad. Experiment was done in quadruplicate samples.

Test [4] deals with HEK293T cells transiently transfected with empty, wildtype, R183Q, or Q209L constructs. In words: MTT assay dose response curve for puromycin, 24 well plate, transiently transfected cells. The class given is cell-based. Conditions: Homo sapiens, HEK-293T, 72 h, puromycin 3 days, read-out: Half maximal inhibitory concentration (IC50), cell number. How it is done:
FIG. 1 is a plot showing response of cells as a function of puromycin concentration. HEK293T cells were transiently transfected with empty, wildtype, R183Q, or Q209L constructs and then exposed to puromycin for 3 days before cell number was assessed by MTT assay in 24 well plate.
To determine whether mutations in GNAQ conferred increased sensitivity to puromycin, an MTT (3-(4,5-dimethylthiazol-2-yl)-2,5-diphenyltetrazolium bromide) assay dose response curve was done with HEK239 cells (including standard curve and normalization) after transient transfection. Puromycin exposure in HEK293 cells transiently transfected with R183Q or Q209L (no puromycin selection) over greater than a 100 fold dose range was then tested.
HEK 293 cells (5×10^5 cells/well) in 6 well-plates were transient transfected with 1 μg of construct (pcDNA3.1-GNAQ, pcDAN3.1-R183Q and pcDNA3.1-Q209L) per well. Twenty-four (24) hours later, the cells were digested, counted and aliquoted into 24 well plates (0.8×10^5 cells/well). After another 24 hours, the transfected cells were incubated with various concentrations of puromycin.
Three days later, the relative cell numbers were detected using MTT assay reagents (CellTiter 96® Aqueous One Solution Cell Proliferation Assay Reagents) as follows. After being thawed at room temperature, 40 μl the CellTiter 96® Aqueous One Solution Reagent was pipetted into each well of the 24-well assay plate containing the samples in 200 μl of culture medium. Then, the plates were incubated at 37° C. for 2 hours in a humidified, 5% CO2 atmosphere. The supernatants were transferred into 96-well plates. The absorbance at 490 nm of each sample was read by using a plate reader (SpectraMax M5). Optical density directly correlated with viable cell quantity.
A software program (GraphPad Prism) was used to generate Dose Response Curves. A non-linear regression was done to graph the Log [puromycin molar concentration] versus Maximal Inhibitory Response. The GraphPad program was used to calculate the IC50 of puromycin for each cell line (dose that gives a 50% maximal response) and the 95% confidence intervals. A 2-way ANOVA (Dose by Construct) was done to determine if there is a significant effect of construct upon puromycin effect with p-value of <0.05 used to determine significance.

Test [5] concerns HEK293T cells with pcDNA3.1-E, -GNAQ, -R183Q or -Q209L plasmids. Nature of the test: RT-PCR gene expression with or without puromycin treatment. The class given is cell-based, human. As to the method:
A panel of genes, important to the regulation of the pathways downstream of GNAQ, were evaluated by RT-PCR in mRNA samples gathered from cells with the pcDNA3.1-E, pcDNA3.1-GNAQ, pcDNA3.1-R183Q or pcDNA3.1-Q209L plasmids with or without puromycin treatment of 0.04 ug/ul (FIGS. 6A-6F, n=3 per group from 3 separate experiments).
HEK293T cells (5×10^5 cells/well) were transfected with 1 μg plasmid (pcDNA3.1-GNAQ, pcDAN3.1-R183Q or pcDNA3.1-Q209L) in 6-well plates. Twenty-four (24) hours later, cells were digested and re-plated into 6-well plates. Twenty-four (24) hours later, the plates were incubated in DMEM (10% FBS) with or without 0.04 μg/ml puromycin. Three days later, total RNA of treated HEK293T cells were isolated by using RNEASY® Mini Kit (QIAGEN) as follows. Media was aspirated, and the cells washed twice with PBS. 350 μl Buffer RLT with B-Mercaptoethanol was added to the each well. The lysate was pipetted into a microcentrifuge tube and pipetted to mix. 1 volume of 70% ethanol was added to the lysate. Lysate was transferred to an RNEASY® spin column placed in a 2 ml collection tube (supplied) and centrifuged. RNEASY® spin column was washed as per kit instructions. 50 μl RNase-free water was added directly to the center of the spin column membrane which was centrifuged for 1 min at 12,000 rpm to elute the RNA. Three separate experiments were performed to obtain triplicate mRNA and protein samples for analysis.
Reverse Transcription was carried out with the using the High Capacity cDNA Reverse Transcription Kits and based on Applied Biosystems' protocol. 2×RT master mix is prepared using the kit components before preparing the reaction plate and kit components allowed to thaw on ice. Referring to one reaction amount of components, the volume of components needed to prepare the required number of reactions was calculated. Then 10 μl of 2×RT master mixes was pipetted into each well of 500 μl PCR clean tubes. 10 μL of RNA sample (1 μg) was pipetted into each tube which is then mixed, centrifuged and then placed in a thermal cycler with the program of (10 min at 25° C., 120 min at 37° C., 5 min at 85° C., then 4° C.). After the thermal cycler, 1 μl RNase H was added into the tubes and incubated at 37° C. for 20 min. Finally, 600 μl Nuclease-free H2O was added into each tube.
The primers for Real-Time PCR were designed online with Primer-BLAST software tool. For each gene, at least three primers at different locations were designed based on the cDNA of the genes. The primer concentrations were normalized and were adjusted to 5 pmol/μ1. The real-time PCR reaction mixture of 20 μl included 10 μl SYBR Green Mix (2×), 2 μl primer pair mix, and 8 μl diluted cDNA solution. The Real-time PCR of loaded samples were run on CFX Connect™ real-time PCR system (Bio-rad) with extension steps of (50° C. 2 min 1 cycle, 95° C. 10 min 1 cycle, 95° C. 15 sec then 60° C. 1 min 40 cycles, 72° C. 10 min, 1 cycle) followed by a melting curve analysis (from 55° C. to 95° C. increments 0.05° C./Sec) to guarantee absence of nonspecific amplification. The primers with a unique peak in melting curve were chosen for next step. The primers were also only used for next experiments after they were confirmed by obtaining the same results from other primers for the same gene. With the final confirmed primers, the RNA levels in triplicate samples, obtained from three separate experiments, were measured.

Where [6] appears, read: all three constructs, puromycin alone, significant.

Converted amounts (≈) assume the structure as drawn. Where two headings read alike, the source gives them in different places.

In the case of `COc1ccc(C[C@H](N)C(=O)N[C@H]2[C@@H](O)[C@H](n3cnc4c(N(C)C)ncnc43)O[C@@H]2CO)cc1` [puromycin], the cells killed in test [1] stood at 100%. For the same molecule, in test [2] (puromycin treatment, pcDNA3.1-GNAQ, pcDNA3.1-R183Q or pcDNA3.1-Q209L cells), the ID3 protein levels entry is listed as “further increased”. Besides, the Gαq protein levels result in test [2] (puromycin versus vehicle treated cells) was “No significant differences”. Also, the IC50 in test [3] (HEK293T with pcDNA3.1-E (empty)) came out at 0.084 µg/mL (≈ 0.178 µM); in test [3] (HEK293T with pcDNA3.1-GNAQ (wildtype)), 0.091 µg/mL (≈ 0.193 µM); in test [3] (HEK293T with pcDNA3.1-Q209L), 0.051 µg/mL (≈ 0.108 µM); in test [3] (HEK293T with pcDNA3.1-R183Q), 0.064 µg/mL (≈ 0.136 µM); in test [4] (Q209L construct), 190 nM; in test [4] (R183Q construct), 190 nM. Besides, the IC50 in test [4] (empty construct) and in test [4] (wildtype GNAQ construct) was 290 nM in each case. For the same molecule, the “ID3 mRNA levels” value in test [5] (R183Q and Q209L mutant cells, puromycin, compared to wildtype puromycin treated and vehicle treated mutant cells) is “upregulated”; in test [5] (wildtype cells, puromycin 0.04 ug/ml, compared to vehicle treated), “up-regulated”. The “TRIO mRNA levels” value in test [5] (all three constructs, puromycin alone, not significant) was “up-regulated”. For the same molecule, the “PRKCQ mRNA levels” value in test [5] (setting [6]) is “up-regulated”. Besides, in test [5] (setting [6]), the “TEAD3 mRNA levels” value is reported as “up-regulated”. The “PIK3C2B mRNA levels” value in test [5] (all three constructs, puromycin alone, significant only in Q209L cells) is given as “up-regulated”. The “TSC22D3 mRNA levels” value in test [5] (cells expressing R183Q or Q209L plasmids, puromycin 0.04 ug/ml) was “further decreased”. In addition, the “TSC22D3 mRNA expression” value in test [5] (wildtype cells, puromycin 0.04 ug/ml, compared to vehicle treated wildtype) is listed as “decreased”.
